Assay results taken from patent US11701377B2, “Methods for treating cancers by prodrugs of clofarabine” (priority 2016, dated 2023).

Columns and labels:
[1] = system: human K562 chronic myelogenous leukemia cell line; assay: In Vitro Anti-proliferative Assay Using Human K562 Leukemia Cell Line; format: cell-based; conditions: K562 cells, 72 hours, 37° C., 5% CO2, triplicates, cell viability
Procedure: Method H: In Vitro Anti-proliferative Assay Using Human K562 Leukemia Cell Line. A representative compound (Example 1, Compound 3) was assessed for its anti-proliferative activity against human K562 chronic myelogenous leukemia cell line at various concentrations ranging from 10 μM to 0.005 μM in triplicates. Incubations were carried out at 37° C., 5% CO2, under humidified atmosphere for 72 hours. After incubation, cell viability was examined.

[2] = In Vitro Metabolic Conversion Assay Using Human Plasma; format: in vitro ADME; conditions: incubation with human plasma at 15 µg/mL, 37° C., 60 minutes, HPLC
Procedure: Method F: In Vitro Metabolic Conversion Assay Using Human Plasma. A representative compound (Example 1, Compound 3) was incubated with human plasma at 15 µg/mL. Incubations were carried out at 37° C. in a shaker water bath. Samples were taken at 0, 10, 30 and 60 minutes, quenched with 25 μL of trifluoroacetic acid, and then centrifuged at 25,000 g for 3 minutes at 4° C. The supernatant of each sample was collected and analyzed using HPLC to monitor the formation of clofarabine. FIG. 1 illustrates the results for incubations performed at 37° C.

IC50 [1]: 324 ± 18 nM
Structure (SMILES): CCOC(=O)OC[C@H]1O[C@@H](n2cnc3c(N)nc(Cl)nc32)[C@@H](F)[C@@H]1O [Compound 3, (2R,3R,4S,5R)-5-(6-Amino-2-chloropurin-9-yl)-2-(ethoxycarbonyloxymethyl)-4-fluoro-oxolan-3-ol]
metabolic conversion in human plasma (depletion of prodrug, formation of clofarabine) [2]: depletion of 3 was observed along with the formation of clofarabine as its metabolite
